Measured values from US20150315241A1, “Antibiotic Peptides” (priority 2007, published 2015).
Values after ≈ are worked out from the molar mass of the structure shown. Where two headings read alike, the source gives them in different places. Where a SMILES comes first, the peptide text is derived from it. [ ]: non-standard residue; d: D form. The star is where a group is joined. Orn(α-tetramethylguanidino) = CN(C)C(=N[C@@H](CCCN)C(=O)*)N(C)C; hArg = N=C(N)NCCCC[C@H](N)C(=O)O; Orn = NCCC[C@H](N)C(=O)O

Assays:
[1] = in vitro; format: in vitro ADME, mouse; conditions: 37° C.
Method: Serum stability studies were carried out in duplicate as described by Hoffmann et al.. Briefly, 28 μL of an aqueous peptide or peptidomimetics solution (0.5 mg/mL) was added to 0.2 mL freshly pooled 25% mouse serum (Sigma-Aldrich GmbH, Taufkirchen, Germany) in water. The mixtures were incubated at 37° C. under gentle stirring. The proteins were precipitated with 40 μL of 15% aqueous TCA after incubation times of 0, 0.5, 1, 2, 4 and 6 h at 0° C. for 20 min before centrifuged (13500×G) at 4° C. for 5 min. The supernatants of all samples (240 μL) were neutralized with 1 mol/L aqueous NaOH and immediately stored at −20° C. The supernatants were analyzed by RP-HPLC using a linear acetonitrile gradient as described above with 0.1% TFA as ion pair reagent. Collected fractions of the main peaks were further analyzed by tandem mass spectrometry (MALDI-TOF/TOF-MS, 4700 Proteomics Analyzer, Applied Biosystems GmbH, Weiterstadt, Germany) in positive ion reflector mode using α-cyanohydroxycinnamic acid (50% CH3CN in 0.1% aqueous TFA) as matrix to identify the degradation products of the peptides and peptidomimetics, i.e., metabolites, at the different time points. Serum control samples consisted of 200 μL of pooled 25% mouse serum in water, which were also precipitated with 40 μL 15% aqueous TCA, as described before. Peptide reference samples consisted of 28 μL of the peptide stock solution diluted in 0.2 mL water and 40 μL of 15% aqueous trichloroacetic acid (TCA).

[2] = system: S. enterica subsp. Enterica serovar. typhi G10215 ATCC 700408; format: cell-based, Salmonella enterica; conditions: ATCC 700408, 20 h
Method in brief: (§1)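 Growth is measured at 595 nm after the bacteria, set to 5×10^6 CFU/mL in 1% TSB, sit with two-fold dilutions of peptide for 20 hrs at 37° C. Final peptide spans 125 μg/mL to 60 ng/mL.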

[3] = system: K. Pneumonia 123132; assay: Growth inhibition assay (MIC); format: cell-based, Klebsiella pneumoniae; conditions: multidrug resistant strain; 1% TSB, 37° C., 20 hrs
Method in brief: as §1

[4] = system: K. Pneumonia K6, ATCC 700603; assay: Growth inhibition assay (MIC); format: cell-based, Klebsiella pneumoniae; conditions: multidrug resistant strain; 1% TSB, 37° C., 20 hrs
Method in brief: as §1

[5] = system: S. typhi S5; format: cell-based, Salmonella typhi; conditions: S5, 20 h
Method: (§2) The minimal inhibition concentrations (MIC) of the apidaecin-derived peptides and peptide-derivatives were determined by a growth inhibition assay using a serial peptide dilution in sterilized round-bottom 96-well plates (polystyrene, U-bottom, Greiner Bio-One GmbH) with a final volume of 100 μL per well. The bacteria, e.g., E. coli BL21 A1, were grown in nutrient broth (NB, Carl Roth GmbH+Co. KG, Karlsruhe, Germany) at 37° C. over night. To each well of the 96-well plate, 50 μL of the overnight culture adjusted to 5×10^6 CFU/mL in 1% TSB were added. Lyophilized peptides and peptidomimetics were dissolved in 1% TSB (tryptic soy broth) or water to give a final concentration of 250 μg/mL. Fifty μL of the peptide or peptidomimetics solution were added to the first well of a row on the plate and mixed. Fifty μL of the first well containing the peptide solution were transferred to the second well, mixed and again 50 μL transferred to the next well and so on. Thereby, a two-fold dilution series was obtained starting at 250 μg/mL in the first well down to 120 ng/mL in the 12th well of a row giving a final peptide or peptidomimetics concentration from 125 μg/mL (well 1) to 60 ng/mL (well 12). Plates were incubated at 37° C. for 20 hrs. The absorbance was measured at 595 nm using a TECAN micro plate spectrophotometer (Tecan, Germany). All peptides and peptidomimetics were measured in triplicates. Sterilized water was used as a negative control.
(§3) The following multidrug resistant bacteria strains were tested: • Eschericha coli 45849 and D31, • Klebsiella pneumoniae 123132 and K6, • Salmonella typhi S5 and Salmonella enterica subsp. enterica serovar Typhimurium (ATCC 700408), • Rhizobium radiobacter (ATCC 15955 deposited as Agrobacterium tumefaciens).

[6] = system: E. coli 45849; assay: Growth inhibition assay (MIC); format: cell-based, Escherichia coli; conditions: multidrug resistant strain; 1% TSB, 37° C., 20 hrs
Method: as §2, §3

[7] = system: E. coli D31; format: cell-based, Escherichia coli; conditions: D31, 20 h
Method in brief: as §1

[8] = system: E. coli 1103; format: cell-based, Escherichia coli; conditions: 1103, 20 h
Method: as §2
(§4) The bacteria strains were tested: • Eschericha coli 1103, 10233, BL 21 AI, DC 2, • Klebsiella pneumoniae 681, • Micrococcus luteus ATCC 10240, • Mycobacterium vaccae • Bactillus subtillis 347.

[9] = system: K. pneumonia 681; format: cell-based, Klebsiella pneumoniae; conditions: 20 h
Method: as §2, §4

[10] = system: E. coli BL 21 AI; assay: Growth inhibition assay (MIC); format: cell-based, Escherichia coli; conditions: 1% TSB, 37° C., 20 hrs
Method in brief: (§5)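 Bacteria grown overnight in NB at 37° C. were adjusted to 5×10^6 CFU/mL in 1% TSB and mixed 1:1 with a two-fold peptide series (final 125 μg/mL–60 ng/mL). After 20 hrs at 37° C., A595 was read; triplicates.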

[11] = system: M. luteus ATCC 10240; format: cell-based, Micrococcus luteus; conditions: ATCC 10240, 20 h
Method in brief: as §5

[12] = system: B. subtilis 347; format: cell-based, Bactillus subtillis; conditions: 347, 20 h
Method: as §2, §4

[13] = 25% aqueous mouse serum, read-out: Half-life time

Compound | half-life at 0.061 mg/mL [1, 13] [h] | MIC S. enterica subsp. Enterica serovar. typhi G10215 ATCC 700408 [2] [µg/mL] | MIC K. Pneumonia 123132 [3] [µg/mL] | MIC K. Pneumonia K6, ATCC 700603 [4] [µg/mL] | MIC S. typhi S5 [5] [µg/mL] | MIC E. coli 45849 [6] [µg/mL] | MIC E. coli D31 [7] [µg/mL] | half-life ([1]; 25% aqueous serum) | MIC E. coli 1103 [8] [µg/mL] | MIC K. pneumonia 681 [9] [µg/mL] | MIC E. coli BL 21 AI [10] [µg/mL] | MIC M. luteus ATCC 10240 [11] [µg/mL] | MIC B. subtilis 347 [12] [µg/mL] | half-life [1, 13] [h]
CC[C@H](C)[C@H](NC(=O)[C@@H]1CCCN1C(=O)[C@H](CCCNC(=N)N)NC(=O)[C@@H]1CCCN1C(=O)[C@H](Cc1c[nH]cn1)NC(=O)[C@@H]1CCCN1C(=O)[C@@H]1CCCN1C(=O)[C@H](CCCNC(=N)N)NC(=O)[C@@H]1CCCN1C(=O)[C@H](CCCNC(=N)N)NC(=O)[C@@H]1CCCN1C(=O)[C@@H](NC(=O)[C@H](Cc1ccc(O)cc1)NC(=O)[C@@H](NC(=O)[C@@H]1CCCN1C(=O)[C@H](CCCNC(=N)N)NC(=O)[C@H](CC(N)=O)NC(=O)[C@H](CC(N)=O)NC(=O)[C@H](CCCN)NC(C)=O)C(C)C)[C@@H](C)CC)C(=O)N[C@@H](CCCNC(=N)N)C(=O)N[C@H](C(=O)O)C(C)C [compound 24] (Ac-[Orn]NNRPVYIPRPRPPHPRPIRV-OH) | 4 | – | – | – | – | – | – | – | – | – | – | – | – | –
CC[C@H](C)[C@H](NC(=O)[C@H](Cc1ccc(O)cc1)NC(=O)[C@@H](NC(=O)[C@@H]1CCCN1C(=O)[C@H](CCCNC(=N)N)NC(=O)[C@H](CC(N)=O)NC(=O)[C@H](CC(N)=O)NC(=O)[C@@H](N)CCCN)C(C)C)C(=O)N1CCC[C@H]1C(=O)N[C@@H](CCCNC(=N)N)C(=O)N1CCC[C@H]1C(=O)N[C@@H](CCCNC(=N)N)C(=O)N1CCC[C@H]1C(=O)N1CCC[C@H]1C(=O)N[C@@H](Cc1c[nH]cn1)C(=O)N1CCC[C@H]1C(=O)N[C@@H](CCCN)C(=O)N[C@@H](CC(C)C)C(N)=O [compound 81] (H-[Orn]NNRPVYIPRPRPPHP[Orn]L-NH2) | 2 | 4 (≈ 1.86 µM) | 8 (≈ 3.72 µM) | 16 (≈ 7.44 µM) | 4 (≈ 1.86 µM) | 8 (≈ 3.72 µM) | 8 (≈ 3.72 µM) | – | – | – | – | – | – | –
CC[C@H](C)[C@H](NC(=O)[C@H](Cc1ccc(O)cc1)NC(=O)[C@@H](NC(=O)[C@@H]1CCCN1C(=O)[C@H](CCCNC(=N)N)NC(=O)[C@H](CC(N)=O)NC(=O)[C@H](CC(N)=O)NC(=O)[C@H](CCCN)NC(C)=O)C(C)C)C(=O)N1CCC[C@H]1C(=O)N[C@@H](CCCNC(=N)N)C(=O)N1CCC[C@H]1C(=O)N[C@@H](CCCNC(=N)N)C(=O)N1CCC[C@H]1C(=O)N1CCC[C@H]1C(=O)N[C@@H](Cc1c[nH]cn1)C(=O)N1CCC[C@H]1C(=O)N[C@@H](CCCN)C(=O)N[C@@H](CC(C)C)C(N)=O [compound 82] (Ac-[Orn]NNRPVYIPRPRPPHP[Orn]L-NH2) | > 6 | 8 (≈ 3.65 µM) | 8 (≈ 3.65 µM) | 32 (≈ 14.6 µM) | 8 (≈ 3.65 µM) | 16 (≈ 7.3 µM) | 32 (≈ 14.6 µM) | The same stability | – | – | – | – | – | –
CC[C@H](C)[C@H](NC(=O)[C@H](Cc1ccc(O)cc1)NC(=O)[C@@H](NC(=O)[C@@H]1CCCN1C(=O)[C@H](CCCNC(=N)N)NC(=O)[C@H](CC(N)=O)NC(=O)[C@H](CC(N)=O)NC(=O)[C@H](CCCN)NC(C)=O)C(C)C)C(=O)N1CCC[C@H]1C(=O)N[C@@H](CCCNC(=N)N)C(=O)N1CCC[C@H]1C(=O)N[C@@H](CCCNC(=N)N)C(=O)N1CCC[C@H]1C(=O)N1CCC[C@H]1C(=O)N[C@@H](Cc1c[nH]cn1)C(=O)N1CCC[C@H]1C(=O)N[C@@H](CCCCNC(=N)N)C(=O)N[C@@H](CC(C)C)C(N)=O [compound 131] (Ac-[Orn]NNRPVYIPRPRPPHP[hArg]L-NH2) | 2 | – | – | – | – | – | – | – | 16 (≈ 7.12 µM) | 16 (≈ 7.12 µM) | 4 (≈ 1.78 µM) | 0.5 (≈ 0.222 µM) | 32 (≈ 14.2 µM) | –
CC[C@H](C)[C@H](NC(=O)[C@H](Cc1ccc(O)cc1)NC(=O)[C@@H](NC(=O)[C@@H]1CCCN1C(=O)[C@H](CCCNC(=N)N)NC(=O)[C@H](CC(N)=O)NC(=O)[C@H](CC(N)=O)NC(=O)[C@H](CCCN)N=C(N(C)C)N(C)C)C(C)C)C(=O)N1CCC[C@H]1C(=O)N[C@@H](CCCNC(=N)N)C(=O)N1CCC[C@H]1C(=O)N[C@@H](CCCNC(=N)N)C(=O)N1CCC[C@H]1C(=O)N1CCC[C@H]1C(=O)N[C@@H](Cc1c[nH]cn1)C(=O)N1CCC[C@H]1C(=O)N[C@@H](CCCN)C(=O)N[C@@H](CC(C)C)C(N)=O [compound 134] ({Orn(α-tetramethylguanidino)}-NNRPVYIPRPRPPHP[Orn]L-NH2; N-terminus and C-terminus assumed) | – | – | – | – | – | – | – | – | 32 (≈ 14.2 µM) | 16 (≈ 7.12 µM) | – | 4 (≈ 1.78 µM) | >128 | > 6
